Data as given in PubChem BioAssay (NCI).
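Cells were grown in 96-well plates and exposed to each compound for 48 hours at five concentrations; endpoints were interpolated linearly between bracketing concentrations, or set to the highest concentration if not reached. At the TGI there is no net growth.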

What was measured:
Experiment in all cases: NCI anticancer screen, dose series, 48 h
IGROV1 ovarian = system: IGROV1 ovarian
OVCAR-4 ovarian = system: OVCAR-4 ovarian
HCT-15 colon = system: HCT-15 colon
DU-145 prostate = system: DU-145 prostate
SW-620 colon = system: SW-620 colon
COLO 205 colon = system: COLO 205 colon
SK-MEL-2 melanoma = system: SK-MEL-2 melanoma
U251 CNS = system: U251 CNS
NCI-H23 lung = system: NCI-H23 lung
SF-539 CNS = system: SF-539 CNS
A549 NSCLC = system: A549 NSCLC
HT29 colon = system: HT29 colon
T-47D breast = system: T-47D breast
HCT-116 colon = system: HCT-116 colon
M14 melanoma = system: M14 melanoma
KM12 colon = system: KM12 colon
K-562 leukemia = system: K-562 leukemia
MDA-MB-435 = system: MDA-MB-435
PC-3 prostate = system: PC-3 prostate
BT-549 breast = system: BT-549 breast
OVCAR-3 ovarian = system: OVCAR-3 ovarian
NCI-H226 lung = system: NCI-H226 lung
NCI-H522 lung = system: NCI-H522 lung
SF-268 CNS = system: SF-268 CNS
EKVX NSCLC = system: EKVX NSCLC
TK-10 renal = system: TK-10 renal
RXF 393 renal = system: RXF 393 renal
SK-OV-3 ovarian = system: SK-OV-3 ovarian
OVCAR-5 ovarian = system: OVCAR-5 ovarian
SNB-75 CNS = system: SNB-75 CNS
HOP-62 NSCLC = system: HOP-62 NSCLC
LOX IMVI melanoma = system: LOX IMVI melanoma
HCC-2998 colon = system: HCC-2998 colon
NCI/ADR-RES ovarian = system: NCI/ADR-RES ovarian
RPMI-8226 leukemia = system: RPMI-8226 leukemia
MALME-3M melanoma = system: MALME-3M melanoma
MCF7 breast = system: MCF7 breast
UACC-62 melanoma = system: UACC-62 melanoma
SF-295 CNS = system: SF-295 CNS
CCRF-CEM leukemia = system: CCRF-CEM leukemia
UO-31 renal = system: UO-31 renal
MDA-N = system: MDA-N
MDA-MB-231 breast = system: MDA-MB-231 breast
OVCAR-8 ovarian = system: OVCAR-8 ovarian
SK-MEL-28 melanoma = system: SK-MEL-28 melanoma
HS 578T breast = system: HS 578T breast
SNB-19 CNS = system: SNB-19 CNS
SN12C renal = system: SN12C renal
CAKI-1 renal = system: CAKI-1 renal
MOLT-4 leukemia = system: MOLT-4 leukemia
HL-60(TB) leukemia = system: HL-60(TB) leukemia
HOP-92 NSCLC = system: HOP-92 NSCLC
SK-MEL-5 melanoma = system: SK-MEL-5 melanoma
ACHN renal = system: ACHN renal
786-0 renal = system: 786-0 renal
UACC-257 melanoma = system: UACC-257 melanoma

Cc1ccc(C2C(C(=O)C(C)(C)C)N2S(=O)(=O)c2ccc(C)cc2)cc1 (stereo unspecified)
TGI (IGROV1 ovarian): 46.5 µM | TGI (OVCAR-4 ovarian): 96.2 µM | TGI (HCT-15 colon): 47.5 µM | TGI (DU-145 prostate): 38.6 µM | TGI (SW-620 colon): 74.7 µM | TGI (COLO 205 colon): 34.6 µM | TGI (SK-MEL-2 melanoma): > 100 µM | TGI (U251 CNS): 42 µM | TGI (NCI-H23 lung): 48.5 µM | TGI (SF-539 CNS): 28.9 µM | TGI (A549 NSCLC): > 100 µM | TGI (HT29 colon): 65.2 µM | TGI (T-47D breast): 52 µM | TGI (HCT-116 colon): 35.4 µM | TGI (M14 melanoma): 35.6 µM | TGI (KM12 colon): > 100 µM | TGI (K-562 leukemia): 65.3 µM | TGI (MDA-MB-435): 45.8 µM | TGI (PC-3 prostate): > 100 µM | TGI (BT-549 breast): 37.5 µM | TGI (OVCAR-3 ovarian): 62 µM | TGI (NCI-H226 lung): 55.1 µM | TGI (NCI-H522 lung): 36.1 µM | TGI (SF-268 CNS): 94.6 µM | TGI (EKVX NSCLC): 37 µM | TGI (TK-10 renal): 97.2 µM | TGI (RXF 393 renal): 46.1 µM | TGI (SK-OV-3 ovarian): > 100 µM | TGI (OVCAR-5 ovarian): 49.3 µM | TGI (SNB-75 CNS): 69.6 µM | TGI (HOP-62 NSCLC): 94.6 µM | TGI (LOX IMVI melanoma): 53.6 µM | TGI (HCC-2998 colon): 33.6 µM | TGI (NCI/ADR-RES ovarian): 75.9 µM | TGI (RPMI-8226 leukemia): 64.2 µM | TGI (MALME-3M melanoma): 49.1 µM | TGI (MCF7 breast): 62.3 µM | TGI (UACC-62 melanoma): 30.7 µM | TGI (SF-295 CNS): > 100 µM | TGI (CCRF-CEM leukemia): 78.1 µM | TGI (UO-31 renal): 32.6 µM | TGI (MDA-N): 34.8 µM | TGI (MDA-MB-231 breast): 39.8 µM | TGI (OVCAR-8 ovarian): 51.9 µM | TGI (SK-MEL-28 melanoma): 75.3 µM | TGI (HS 578T breast): 82.5 µM | TGI (SNB-19 CNS): 57.5 µM | TGI (SN12C renal): 40.6 µM | TGI (CAKI-1 renal): 59.1 µM

Cc1cc(S(=O)(=O)O)ccc1N=Nc1c(O)ccc2ccccc12
TGI (IGROV1 ovarian): > 100 µM | TGI (OVCAR-4 ovarian): > 100 µM | TGI (HCT-15 colon): > 100 µM | TGI (DU-145 prostate): > 100 µM | TGI (SW-620 colon): > 100 µM | TGI (COLO 205 colon): > 100 µM | TGI (SK-MEL-2 melanoma): > 100 µM | TGI (U251 CNS): > 100 µM | TGI (NCI-H23 lung): > 100 µM | TGI (MOLT-4 leukemia): > 100 µM | TGI (A549 NSCLC): > 100 µM | TGI (HT29 colon): > 100 µM | TGI (HL-60(TB) leukemia): > 100 µM | TGI (T-47D breast): > 100 µM | TGI (HCT-116 colon): > 100 µM | TGI (M14 melanoma): > 100 µM | TGI (HOP-92 NSCLC): > 100 µM | TGI (KM12 colon): > 100 µM | TGI (K-562 leukemia): > 100 µM | TGI (MDA-MB-435): > 100 µM | TGI (PC-3 prostate): > 100 µM | TGI (BT-549 breast): > 100 µM | TGI (OVCAR-3 ovarian): > 100 µM | TGI (NCI-H226 lung): > 100 µM | TGI (NCI-H522 lung): > 100 µM | TGI (SF-268 CNS): > 100 µM | TGI (SK-MEL-5 melanoma): > 100 µM | TGI (EKVX NSCLC): > 100 µM | TGI (TK-10 renal): > 100 µM | TGI (RXF 393 renal): > 100 µM | TGI (SK-OV-3 ovarian): > 100 µM | TGI (OVCAR-5 ovarian): > 100 µM | TGI (ACHN renal): > 100 µM | TGI (SNB-75 CNS): > 100 µM | TGI (HOP-62 NSCLC): > 100 µM | TGI (NCI/ADR-RES ovarian): > 100 µM | TGI (RPMI-8226 leukemia): > 100 µM | TGI (MALME-3M melanoma): > 100 µM | TGI (786-0 renal): > 100 µM | TGI (UACC-62 melanoma): > 100 µM | TGI (SF-295 CNS): > 100 µM | TGI (CCRF-CEM leukemia): > 100 µM | TGI (UO-31 renal): > 100 µM | TGI (MDA-N): > 100 µM | TGI (MDA-MB-231 breast): > 100 µM | TGI (OVCAR-8 ovarian): > 100 µM | TGI (SK-MEL-28 melanoma): > 100 µM | TGI (HS 578T breast): > 100 µM | TGI (SNB-19 CNS): > 100 µM | TGI (SN12C renal): > 100 µM | TGI (CAKI-1 renal): > 100 µM | TGI (UACC-257 melanoma): > 100 µM
